Paper PMC12523804, “Evaluation of molecular mechanisms of (Z)-3-(pentadec-10′-enyl)-catechol (litreol) and synthetic derivatives as inhibitors of human leukotriene biosynthesis” (Redox Biology, 2025)

Columns and labels:
5-LO [1] = target: T1, 5-LO (Homo sapiens, UniProt P09917); assay: 5-LO product formation in intact human PMNL (neutrophils); assay type: cell-based; set-up: endogenous in cells; host or cells: human PMNL from peripheral blood of healthy volunteers; conditions: for IC50: intact human PMNL
T1 sequence (P09917 1-674): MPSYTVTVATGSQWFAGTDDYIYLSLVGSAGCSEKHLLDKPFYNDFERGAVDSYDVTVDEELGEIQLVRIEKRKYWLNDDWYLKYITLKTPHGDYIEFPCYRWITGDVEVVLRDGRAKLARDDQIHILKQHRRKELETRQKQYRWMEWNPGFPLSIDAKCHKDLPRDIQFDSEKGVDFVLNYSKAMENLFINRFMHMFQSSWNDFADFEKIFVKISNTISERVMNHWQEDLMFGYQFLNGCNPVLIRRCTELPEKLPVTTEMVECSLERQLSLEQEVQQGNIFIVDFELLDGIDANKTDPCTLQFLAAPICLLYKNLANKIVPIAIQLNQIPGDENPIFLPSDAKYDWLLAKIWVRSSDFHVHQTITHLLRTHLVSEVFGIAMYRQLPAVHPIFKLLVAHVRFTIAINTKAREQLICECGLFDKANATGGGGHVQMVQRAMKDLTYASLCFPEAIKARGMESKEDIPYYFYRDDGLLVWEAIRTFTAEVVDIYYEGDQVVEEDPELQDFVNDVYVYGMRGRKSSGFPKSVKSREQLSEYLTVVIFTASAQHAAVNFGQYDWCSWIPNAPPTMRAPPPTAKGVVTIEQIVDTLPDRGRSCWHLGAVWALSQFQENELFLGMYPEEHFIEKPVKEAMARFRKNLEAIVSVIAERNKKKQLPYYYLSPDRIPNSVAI
Method: PMNL and monocytes were isolated from human peripheral blood of adult healthy volunteers, with consent, obtained from the Institute of Transfusion Medi-cine, University Hospital Jena (Germany). PMNL were immediately isolated by dextran sedi-mentation, centrifugation on Nycoprep cushions, and hypotonic lysis of erythrocytes, as described. PMNL viability was analyzed by trypan blue exclusion with a Vi-cell counter (Beckmann Coulter GmbH, Krefeld). HEK-293 cells were grown in DMEM/High Glucose (4.5 g/L) medium supplemented with heat-inactivated fetal calf serum (FCS, 10 %, vv_1), 100 U/mLpenicillin, and 100 µg/mL streptomycin at 37 °C in a 5 % CO2 incubator. HEK-293 cells were stably transfected with 5-LO and FLAP as validated experimental cell-based model for studying the regulation of 5-LO [28]. None of the cell lines used in this study were authenticated.
Freshly isolated human PMNL (5 × 10^6) were resuspended in 1 mL PBS buffer containing 1 mg/mL glucose (PG buffer). […] After 10 min at 37 °C, the reaction was stopped with 1 mL of methanol for 10 min on ice and LO products formed and released in the supernatants were extracted and analyzed by HPLC. In detail, after centrifugation (800g, 10 min, room temperature) the samples were applied to C-18 solid-phase extraction columns (100 mg; IST, Mid Glamorgan, United Kingdom), preconditioned with 1 mL methanol and 1 mL water. The columns were washed with 1 mL water and 1 mL water/methanol (75/25, vol/vol) and 5-LO metabolites were eluted with 300 μL methanol. The extract was then diluted with 120 μL water, and 100 μL diluted extract were analyzed by HPLC using a C-18 Radial-Pak column (Waters) eluted with methanol/water/acetic acid 75/25/0.1 (vol/vol/vol) at a flow rate of 1.2 mL/min. Amounts of different metabolites were determined by peak area integration. 5-LO products analyzed include LTB4 and its two all-trans isomers, 5(S)-hydroxy-6-trans-8,11,14-cis-eicosatetraenoic acid (5-HETE), and 5(S)-hydroper-oxy-6-trans-8,11,14-cis-eicosatetraenoic acid (5-HpETE). 5-HETE and 5-HpETE coelute as one major peak, and the integration of this peak represented both eicosanoids.

intracellular Ca2+ = assay: Intracellular Ca2+ measurements in PMNL (Fura-2); assay type: cell-based, human; conditions: 1 μM compound
Method: PMNL (10^7 x ml PG buffer) were pre-stained with Fura-2/AM (2 μM) for 45 min at 37 °C in the dark. After two washing steps, cells were resuspended in PG buffer containing 0.1 % BSA at a density of 5 × 10^6/mL. 100 μL of the cell suspension was transferred into a 96-well plate and pre-incubated for 10 min at 37 °C with compound or vehicle (1 % DMSO), and 2 min prior stimulation 1 mM CaCl2 was added, following addition of 0.1 μM fMLP or 2 μM ionomycin as a positive control for Ca^2+ influx. The signal was monitored in a thermally (37 °C) controlled NOVOstar microplate reader (BMG Labtechnologies GmbH, Offenburg, Germany) (emission at 510 nm, excitation at 340 nm (Ca^2+-bound Fura-2) and 380 nm (free Fura-2). After cell lysis with Triton X-100 the maximal fluorescence signals were monitored and after chelating Ca^2+ with 10 mM EDTA the minimal fluorescence signals. The concentration of Ca^2+ was calculated from the ratio of the signals at 340 and 380 nm according to Grynkiewicz G et al..

5-LO [2] = test system: 5-LO; set-up: method as in PMID 32220788; conditions: read-out: IC50 against 5-LO; cited from earlier work
ROS formation in PMNL = assay: ROS formation in neutrophils (DCF-DA); assay type: cell-based, human; conditions: 1 and 10 μM, 0.1 μM PMA
Method: Neutrophils (10^7 cells/mL in PG buffer) were pre-incubated for 15 min at 37 °C with litreol compounds, diphenyleneiodonium chloride (DPI, used as a positive control for ROS inhibition), or 0.1 % DMSO as vehicle control. Then, 2′,7′-dichlorofluorescence-diacetate (DCF-DA; 1 μg/mL) and CaCl2 (1 mM) were added 2 min prior to addition of 0.1 μM phorbol myristate acetate (PMA, AppliChem, Darmstadt, Germany). The fluorescence emission at 530 nm was measured after excitation at 485 nm in a thermally controlled (37 °C) NOVOstar microplate reader (BMG Labtechnologies GmbH, Offenburg, Germany).

[3] = Cell-based A23187 (IC50 of 5-LO product formation), […] A23187, 10 min
[4] = Cell-based A23187 + AA (IC50 of 5-LO product formation), […] A23187 plus 20 μM AA, 10 min

| Compound | IC50 (5-LO [1]; [3]) [nM] | IC50 (5-LO [1]; [4]) [nM] | fold greater potency compared to hydrogenated analogue CS (5-LO [1]; comparison of IC50 values (neutrophils and cell-free)) | intracellular Ca2+ concentrations (intracellular Ca2+) | IC50 (5-LO [2]) [nM] | ROS formation in PMA-stimulated PMNL (ROS formation in PMNL) |
| --- | --- | --- | --- | --- | --- | --- |
| CCCC/C=C\CCCCCCCCCc1cccc(O)c1O [CI, (Z)-3-(pentadec-10′-enyl)-catechol] | 260 | 90 | 2.5- to 3 fold | Neither CS nor CI caused significant changes | 2090 | not affected |
| CCCCCCCCCCCCCCCc1cccc(O)c1O [CS, 3-n-pentadecylcatechol] | 800 ± 500 | 70 |  | Neither CS nor CI caused significant changes | 2740 | not affected |
